Consider 21 molecules from paper PMC7294232, “Synthesis and biological evaluation of novel quinoline-piperidine scaffolds as antiplasmodium agents” (European Journal of Medicinal Chemistry, 2020).

Where two headings read alike, the source gives them in different places.

For assay [1], the system named is CQ-sensitive strain of P. falciparum (NF54). Description: in vitro antiplasmodium assay (parasite lactate dehydrogenase), CQ-sensitive strain. The following applies: for IC50: Plasmodium falciparum. Type of assay: cell-based, Plasmodium falciparum.
Assay [2] concerns CQ-resistant strain of P. falciparum (K1). Description: in vitro antiplasmodium assay (parasite lactate dehydrogenase), CQ-resistant strain. The note with it: for IC50: Plasmodium falciparum; for activity lowered by omitting the 7-chlorine atom: CQ-resistant strain, versus 7-chloro analogues. Type of assay: cell-based, Plasmodium falciparum.
Assay [3] deals with Chinese hamster ovarian (CHO) cells. Description: in vitro cytotoxicity, MTT-assay. Type of assay: cell-based. The note with it: for IC50: Cricetulus griseus, CHO; for SI (selectivity index): IC50 CHO/IC50 NF54. The protocol:
An antiplasmodium assay was performed on this set of 18 novel quinoline-piperidine analogues to establish their potential as antimalarial agents. […] All compounds were screened for in vitro antiplasmodium activity against a CQ-sensitive strain of P. falciparum (NF54). Subsequently, compounds showing promising antiplasmodium activity were also tested against a CQ-resistant strain of P. falciparum (K1) and analysed for in vitro cytotoxicity against a mammalian cell line, Chinese hamster ovarian (CHO) cells, using the 3-(4,5-dimethylthiazol-2-yl)-2,5-diphenyltetrazoliumbromide (MTT)-assay. Continuous in vitro cultures of asexual erythrocyte stages of P. falciparum were maintained using a modified method of Trager and Jensen, and quantitative assessment of antiplasmodium activity in vitro was determined via the parasite lactate dehydrogenase assay using a modified method described by Makler. The test samples were tested in triplicate on one occasion. The MTT-assay was used as a colorimetric assay for cellular growth and survival, and compares well with other available assays. The tetrazolium salt MTT was used to measure all growth and chemosensitivity. Again, samples were tested in triplicate on one occasion. Chloroquine was used as reference compound in both antiplasmodium screenings, while emetine was used as known antiprotozoal agent in the MTT-assay.
The same stock solutions prepared for antiplasmodium testing were used for cytotoxicity testing. Test compounds were stored at −20 °C until use. Dilutions were prepared on the day of the experiment. Emetine was used as the reference drug in all experiments. The initial concentration of emetine was 100 μg/ml, which was serially diluted in complete medium with 10-fold dilutions to give 6 concentrations, the lowest being 0.001 μg/ml. The same dilution technique was applied to all the test samples. The highest concentration of solvent to which the cells were exposed to had no measurable effect on the cell viability (data not shown). The 50% inhibitory concentration (IC50) values were obtained from full dose-response curves, using a non-linear dose-response curve fitting analysis via GraphPad Prism v.4 software.

[4] abbreviates: CQ-sensitive P. falciparum NF54, mean ± SD, read-out: NF54 IC50.
The mark [5] stands for this setting: CQ-resistant P. falciparum K1, mean ± SD, read-out: K1 IC50.
Where [6] appears, read: cytotoxicity, CHO cells, MTT, mean ± SD.

The term IC50 denotes the concentration needed to halve the response being measured. Regarding `C=CCN1C[C@@H](OCc2ccccc2)[C@@H](CNc2ccnc3cc(Cl)ccc23)C(C)(C)C1` (relative stereo) [Compound 16a, N-[(cis-1-Allyl-5-benzyloxy-3,3-dimethylpiperidin-4-yl)methyl]-7-chloroquinolin-4-amine], the IC50 in assay [1] (setting [4]) was determined as 0.012 ± 0.001 µM; in assay [2] (setting [5]), 0.026 ± 0.0057 µM; in assay [3] (setting [6]), 122 ± 41.4 µM. In addition, the “SI (selectivity index)” value in assay [3] is recorded as 10,149.

`C=CCN1C[C@@H](OCc2ccccc2)[C@@H](CNCc2ccnc3ccccc23)C(C)(C)C1` (relative stereo) [Compound 17a, N-[(cis-1-Allyl-5-benzyloxy-3,3-dimethylpiperidin-4-yl)methyl]-1-(quinolin-4-yl)methanamine]: the values for the IC50 in assay [1] (setting [4]), in assay [2] (setting [5]) and in assay [3] (setting [6]) were 2.37 ± 1.05 µM, 3.66 ± 0.43 µM and 139 ± 14.1 µM, respectively. In addition, in assay [3], the “SI (selectivity index)” value was 59.

For `C=CCN1C[C@@H](OCc2ccccc2)[C@@H](CNCc2ccc3ccccc3n2)C(C)(C)C1` (relative stereo) [Compound 17c, N-[(cis-1-Allyl-5-benzyloxy-3,3-dimethylpiperidin-4-yl)methyl]-1-(quinolin-2-yl)methanamine], the values for the IC50 in assay [1] (setting [4]), in assay [2] (setting [5]) and in assay [3] (setting [6]) were 1.57 ± 0.17 µM, 2.82 ± 0.14 µM and 211 ± 31.4 µM, respectively. Further, the “SI (selectivity index)” value in assay [3] came out at 134.

As to `C=CCN1C[C@@H](OCc2ccccc2)[C@@H](CNCc2cc3ccccc3nc2Cl)C(C)(C)C1` (relative stereo) [Compound 17f, N-[(cis-1-Allyl-5-benzyloxy-3,3-dimethylpiperidin-4-yl)methyl]-1-(2-chloroquinolin-3-yl)methanamine], the IC50 in assay [1] (setting [4]) came to 1.28 ± 0.33 µM; in assay [2] (setting [5]), 1.95 ± 0.078 µM; in assay [3] (setting [6]) it was 199 ± 23.3 µM. Also, in assay [3], the “SI (selectivity index)” value was 156.

For `C=CCN1C[C@@H](OC)[C@@H](CNCc2ccnc3ccccc23)C(C)(C)C1` (relative stereo) [Compound 17h, N-[(cis-1-Allyl-5-methoxy-3,3-dimethylpiperidin-4-yl)methyl]-1-(quinolin-4-yl)methanamine], the IC50 in assay [1] (setting [4]) came to 18 ± 2.44 µM.

For the molecule `CCN(CC)CCCC(C)Nc1ccnc2cc(Cl)ccc12` (centres unmarked) [Chloroquine, reference compound], the IC50 is 0.0113 µM in assay [1] (NF54, read-out: IC50 (NF54), footnote reference value, subset c); 0.0095 µM in assay [1] (NF54, read-out: IC50 (NF54), footnote reference value, subset d); 0.02 µM in assay [1] (NF54, read-out: IC50 (NF54), footnote reference value, subset e); 0.011 ± 0.001 µM in assay [1] (NF54, read-out: NF54 IC50, reference value for compound subset c); 0.01 µM in assay [1] (NF54, read-out: NF54 IC50, reference value for compound subset d); 0.02 µM in assay [1] (NF54, read-out: NF54 IC50, reference value for compound subset e). Further, the IC50 in assay [2] (K1, read-out: IC50 (K1)) turned out to be 0.167 µM.

Regarding `COc1ccc(CNCC2CC3(c4ccccc4)CCN2C3)cc1` (centres unmarked) [Compound 7, 2-[N-(4-methoxybenzyl)aminomethyl]-4-phenyl-1-azabicyclo[2.2.1]heptane], in assay [1] (setting [4]), the IC50 is 1.55 ± 0.13 µM. Moreover, in assay [1] (in vitro, strain not given), the “antiplasmodium activity (in words)” value is recorded as “moderate antiplasmodium activity”.

With `Clc1ccc2c(NCC3CC4(c5ccccc5)CCN3C4)ccnc2c1` (centres unmarked) [Compound 11a, 7-Chloro-N-[(4-phenyl-1-azabicyclo[2.2.1]heptan-2-yl)methyl]quinolin-4-amine], the IC50 in assay [1] (setting [4]) worked out at 0.021 ± 0.005 µM; in assay [2] (setting [5]), 0.033 ± 0.0062 µM; in assay [3] (setting [6]), 26 ± 2.9 µM. Also, the “SI (selectivity index)” value in assay [3] is recorded as 1266.

As for `c1ccc(C23CCN(C2)C(CNc2ccnc4ccccc24)C3)cc1` (centres unmarked) [Compound 11b, N-[(4-Phenyl-1-azabicyclo[2.2.1]heptan-2-yl)methyl]quinolin-4-amine], the IC50 amounted to 0.045 ± 0.007 µM in assay [1] (setting [4]), 0.069 ± 0.0113 µM in assay [2] (setting [5]) and 11.2 ± 2.1 µM in assay [3] (setting [6]). Also, in assay [2], the “activity lowered by omitting the 7-chlorine atom” value is listed as 2 to 3 times. Moreover, the “SI (selectivity index)” value in assay [3] is 250.

Turning to `c1ccc(C23CCN(C2)C(CNCc2ccnc4ccccc24)C3)cc1` (centres unmarked) [Compound 12a, N-[(4-Phenyl-1-azabicyclo[2.2.1]heptan-2-yl)methyl]-1-(quinolin-4-yl)methanamine], the IC50 in assay [1] (setting [4]) was determined as 6.77 ± 0.25 µM.

With `c1ccc(C23CCN(C2)C(CNCc2cnc4ccccc4c2)C3)cc1` (centres unmarked) [Compound 12b, N-[(4-Phenyl-1-azabicyclo[2.2.1]heptan-2-yl)methyl]-1-(quinolin-3-yl)methanamine], in assay [1] (setting [4]), the IC50 turned out to be 4.07 ± 0.74 µM.

For the molecule `c1ccc(C23CCN(C2)C(CNCc2ccc4ccccc4n2)C3)cc1` (centres unmarked) [Compound 12c, N-[(4-Phenyl-1-azabicyclo[2.2.1]heptan-2-yl)methyl]-1-(quinolin-2-yl)methanamine], in assay [1] (setting [4]), the IC50 is 1.27 ± 0.04 µM.

Turning to `Oc1cccc2ccc(CNCC3CC4(c5ccccc5)CCN3C4)nc12` (centres unmarked) [Compound 12d, 2-{N-[(4-Phenyl-1-azabicyclo[2.2.1]heptan-2-yl)methyl]aminomethyl}quinolin-8-ol], the results for the IC50 in assay [1] (setting [4]), in assay [2] (setting [5]) and in assay [3] (setting [6]) were 0.72 ± 0.03 µM, 4.64 ± 0.13 µM and 103 ± 19.7 µM, respectively. In addition, the “SI (selectivity index)” value in assay [3] is listed as 142.

In the case of `Clc1nc2ccccc2cc1CNCC1CC2(c3ccccc3)CCN1C2` (centres unmarked) [Compound 12e, N-[(4-Phenyl-1-azabicyclo[2.2.1]heptan-2-yl)methyl]-1-(2-chloroquinolin-3-yl)methanamine], the IC50 in assay [1] (setting [4]) was 3.6 ± 0.31 µM.

Regarding `C=CCN1CCC(CNc2ccnc3cc(Cl)ccc23)C(C)(C)C1` (centres unmarked) [Compound 16b, N-[(1-Allyl-3,3-dimethylpiperidin-4-yl)methyl]-7-chloroquinolin-4-amine], the results for the IC50 in assay [1] (setting [4]), in assay [2] (setting [5]) and in assay [3] (setting [6]) were 0.015 ± 0.0017 µM, 0.025 ± 0.0089 µM and 29.9 ± 1.2 µM, respectively. Moreover, in assay [3], the “SI (selectivity index)” value was 1991.

For `C=CCN1CCC(CNc2ccnc3ccccc23)C(C)(C)C1` (centres unmarked) [Compound 16c, N-[(1-Allyl-3,3-dimethylpiperidin-4-yl)methyl]quinolin-4-amine], the IC50 in assay [1] (setting [4]) came to 0.236 ± 0.032 µM; in assay [2] (setting [5]) it was 0.0685 ± 0.0078 µM; in assay [3] (setting [6]), 27 ± 3.2 µM. In addition, the “activity lowered by omitting the 7-chlorine atom” value in assay [2] was 2 to 3 times. The “SI (selectivity index)” value in assay [3] is reported as 114.

For the molecule `C=CCN1CCC(CNCc2ccnc3ccccc23)C(C)(C)C1` (centres unmarked) [Compound 17b, N-[(1-Allyl-3,3-dimethylpiperidin-4-yl)methyl]-1-(quinolin-4-yl)methanamine], in assay [1] (setting [4]), the IC50 came to 4.94 ± 1.18 µM.

For the molecule `C=CCN1CCC(CNCc2ccc3ccccc3n2)C(C)(C)C1` (centres unmarked) [Compound 17d, N-[(1-Allyl-3,3-dimethylpiperidin-4-yl)methyl]-1-(quinolin-2-yl)methanamine], the IC50 in assay [1] (setting [4]) was determined as 3.66 ± 0.82 µM.

For `C=CCN1CCC(CNCc2ccc3cccc(O)c3n2)C(C)(C)C1` (centres unmarked) [Compound 17e, 2-{N-[(1-Allyl-3,3-dimethylpiperidin-4-yl)methyl]aminomethyl}quinolin-8-ol], in assay [1] (setting [4]), the IC50 was determined as 2.89 ± 1.06 µM.

In the case of `C=CCN1CCC(CNCc2cc3ccccc3nc2Cl)C(C)(C)C1` (centres unmarked) [Compound 17g, N-[(1-Allyl-3,3-dimethylpiperidin-4-yl)methyl]-1-(2-chloroquinolin-3-yl)methanamine], the IC50 in assay [1] (setting [4]) was found to be 7.75 ± 1.44 µM.

In the case of `CC[C@H]1CN2CCc3cc(OC)c(OC)cc3[C@@H]2C[C@@H]1C[C@H]1NCCc2cc(OC)c(OC)cc21` [Emetine, reference compound], the IC50 in assay [3] (reference value for compound subset c) is 0.04 ± 0.01 µM; in assay [3] (reference value for compound subset d) it was 0.14 µM; in assay [3] (reference value for compound subset e), 0.03 µM.
